Test results as given in patent EP0585371B1, “AROMATIC OLIGOMERIC COMPOUNDS USEFUL AS MIMICS OF BIOACTIVE MACROMOLECULES” (RHONE-POULENC RORER INTERNATIONAL (HOLDINGS) INC., priority 1991, dated 1992).

Tests used:
[1] = system: normal pooled plasma; assay: Anticoagulation activity, Activated Partial Thromboplastin Time (APTT) test; conditions: concentration required to double clotting time
Experimental: The following test measures anticoagulant activity of the oligomers of the present invention and utilizes the Activated Partial Thromboplastin Time (APTT) test, with the following procedures.
To an assay cuvette is added 100 µl of normal pooled plasma (George King Biomedical Inc., Kansas) and […] of a solution containing the test compound in aqueous 50 mM Tris hydrochloride at pH 7.5 (0.2 mg of sample in one ml buffer). The sample is placed in a MLA coagulation timer which automatically maintains the sample at 37°C for 2.5 minutes, 100 µl of actin activated cephaloplastin reagent is injected, kept 5 minutes, 100 µl of 35 mM CaCI is injected, and clot formation is determined photometrically and the clotting time recorded. Each example is examined at a variety of concentrations, generally from about .025 mg/ml to about 1 mg/ml, and the clotting times are graphed as a function of concentration. From the graphic results, the concentration required to double clotting time (ICDCT) is calculated by linear interpolation.

[2] = biological target: T1, ESb mouse lymphoma heparanase (Mus musculus, UniProt Q6YGZ1); assay: Inhibition of heparanase activity (degradation of labeled ECM heparan sulfate); assay type: biochemical; conditions: 24 hours incubation with labeled ECM
T1 construct: endogenous in cells; host or cells: ESb mouse lymphoma cells
T1 sequence (Q6YGZ1 28-535): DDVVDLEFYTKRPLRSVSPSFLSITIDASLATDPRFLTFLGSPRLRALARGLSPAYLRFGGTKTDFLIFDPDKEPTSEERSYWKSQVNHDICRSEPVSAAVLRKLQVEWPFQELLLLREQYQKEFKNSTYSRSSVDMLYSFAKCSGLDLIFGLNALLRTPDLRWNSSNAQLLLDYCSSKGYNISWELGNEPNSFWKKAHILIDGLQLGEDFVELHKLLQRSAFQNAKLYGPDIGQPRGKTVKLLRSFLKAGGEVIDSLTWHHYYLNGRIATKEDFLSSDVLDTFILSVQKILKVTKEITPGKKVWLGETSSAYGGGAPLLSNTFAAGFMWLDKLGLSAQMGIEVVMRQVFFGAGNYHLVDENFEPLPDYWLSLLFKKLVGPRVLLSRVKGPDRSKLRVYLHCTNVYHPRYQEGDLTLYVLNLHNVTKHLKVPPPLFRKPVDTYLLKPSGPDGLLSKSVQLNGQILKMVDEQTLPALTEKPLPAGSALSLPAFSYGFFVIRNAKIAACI
Experimental: Heparanase is an endoglucuronidase capable of degrading […] (HS) at specific intrachain sites.
The ability of compounds of the present invention to inhibit lymphomacell derived heparanase is tested in the assay system described by Vlodavsky et al., Cancer Research 43, 2704-2711 (1983). […] labeled ECM is incubated for 24 hours with ESb mouse lymphoma heparanase in the presence of various concentrations of the oligomers tested. Degradation of the HS is followed by gel filtration of the supematants. Heparanase activity is expressed as the total amount of labeled low-molecular-weight fragments released from the EMC substrate.

[3] = system: human fixed thrombin activated platelets; assay: Platelet aggregation inhibition (fibrinogen-induced); assay type: cell-based; conditions: human fibrinogen added
Experimental: The method for measuring platelet aggregation inhibition is essentially that of Ruggeri, et al., Proc. Natl. Acad. Sci. USA, 83, 5708-5712 (1986), using formalin-fixed platelets as prepared by Plow, et al., Proc. Natl. Acad. Sci. USA, 79, 3711-3715 (1982). A given amount of the compound of the present invention or other compound to be tested (10 to 100 µl of a 1 mg/ml solution) is incubated at 37°C with 400 µl of human fixed thrombin activated platelets for 2 minutes. 12.5 µl of human fibrinogen solution is added and aggregation is monitored using a platelet aggregation profiler (Model PAP-4). Controls consist of fibrinogen added to incubated platelets and the resulting aggregation is considered as 100%. Percent inhibition in the presence of a given concentration of test compound versus concentration of the compound is plotted and the concentration required to give 50% inhibition (IC50) is determined.

[4] = biological target: T2, vWF Binding to Gp1b (Homo sapiens, UniProt P04275+P07359); assay: Inhibition of ristocetin-induced binding of 125I-vWF to formalin-fixed platelets; conditions: ristocetin 1.0 mg/ml; for Ristocetin-Induced Inhibition of vWF Binding to Gp1b: at 100 µg/ml
T2 construct: multimeric vWF (isolated from human plasma cryoprecipitate); Formalin-fixed platelets, prepared according to the method of MacFarlane; from tissue; host or cells: vWF from human plasma cryoprecipitate; GPIb on formalin-fixed platelets
T2 sequence (P04275 764-2813 limits assumed): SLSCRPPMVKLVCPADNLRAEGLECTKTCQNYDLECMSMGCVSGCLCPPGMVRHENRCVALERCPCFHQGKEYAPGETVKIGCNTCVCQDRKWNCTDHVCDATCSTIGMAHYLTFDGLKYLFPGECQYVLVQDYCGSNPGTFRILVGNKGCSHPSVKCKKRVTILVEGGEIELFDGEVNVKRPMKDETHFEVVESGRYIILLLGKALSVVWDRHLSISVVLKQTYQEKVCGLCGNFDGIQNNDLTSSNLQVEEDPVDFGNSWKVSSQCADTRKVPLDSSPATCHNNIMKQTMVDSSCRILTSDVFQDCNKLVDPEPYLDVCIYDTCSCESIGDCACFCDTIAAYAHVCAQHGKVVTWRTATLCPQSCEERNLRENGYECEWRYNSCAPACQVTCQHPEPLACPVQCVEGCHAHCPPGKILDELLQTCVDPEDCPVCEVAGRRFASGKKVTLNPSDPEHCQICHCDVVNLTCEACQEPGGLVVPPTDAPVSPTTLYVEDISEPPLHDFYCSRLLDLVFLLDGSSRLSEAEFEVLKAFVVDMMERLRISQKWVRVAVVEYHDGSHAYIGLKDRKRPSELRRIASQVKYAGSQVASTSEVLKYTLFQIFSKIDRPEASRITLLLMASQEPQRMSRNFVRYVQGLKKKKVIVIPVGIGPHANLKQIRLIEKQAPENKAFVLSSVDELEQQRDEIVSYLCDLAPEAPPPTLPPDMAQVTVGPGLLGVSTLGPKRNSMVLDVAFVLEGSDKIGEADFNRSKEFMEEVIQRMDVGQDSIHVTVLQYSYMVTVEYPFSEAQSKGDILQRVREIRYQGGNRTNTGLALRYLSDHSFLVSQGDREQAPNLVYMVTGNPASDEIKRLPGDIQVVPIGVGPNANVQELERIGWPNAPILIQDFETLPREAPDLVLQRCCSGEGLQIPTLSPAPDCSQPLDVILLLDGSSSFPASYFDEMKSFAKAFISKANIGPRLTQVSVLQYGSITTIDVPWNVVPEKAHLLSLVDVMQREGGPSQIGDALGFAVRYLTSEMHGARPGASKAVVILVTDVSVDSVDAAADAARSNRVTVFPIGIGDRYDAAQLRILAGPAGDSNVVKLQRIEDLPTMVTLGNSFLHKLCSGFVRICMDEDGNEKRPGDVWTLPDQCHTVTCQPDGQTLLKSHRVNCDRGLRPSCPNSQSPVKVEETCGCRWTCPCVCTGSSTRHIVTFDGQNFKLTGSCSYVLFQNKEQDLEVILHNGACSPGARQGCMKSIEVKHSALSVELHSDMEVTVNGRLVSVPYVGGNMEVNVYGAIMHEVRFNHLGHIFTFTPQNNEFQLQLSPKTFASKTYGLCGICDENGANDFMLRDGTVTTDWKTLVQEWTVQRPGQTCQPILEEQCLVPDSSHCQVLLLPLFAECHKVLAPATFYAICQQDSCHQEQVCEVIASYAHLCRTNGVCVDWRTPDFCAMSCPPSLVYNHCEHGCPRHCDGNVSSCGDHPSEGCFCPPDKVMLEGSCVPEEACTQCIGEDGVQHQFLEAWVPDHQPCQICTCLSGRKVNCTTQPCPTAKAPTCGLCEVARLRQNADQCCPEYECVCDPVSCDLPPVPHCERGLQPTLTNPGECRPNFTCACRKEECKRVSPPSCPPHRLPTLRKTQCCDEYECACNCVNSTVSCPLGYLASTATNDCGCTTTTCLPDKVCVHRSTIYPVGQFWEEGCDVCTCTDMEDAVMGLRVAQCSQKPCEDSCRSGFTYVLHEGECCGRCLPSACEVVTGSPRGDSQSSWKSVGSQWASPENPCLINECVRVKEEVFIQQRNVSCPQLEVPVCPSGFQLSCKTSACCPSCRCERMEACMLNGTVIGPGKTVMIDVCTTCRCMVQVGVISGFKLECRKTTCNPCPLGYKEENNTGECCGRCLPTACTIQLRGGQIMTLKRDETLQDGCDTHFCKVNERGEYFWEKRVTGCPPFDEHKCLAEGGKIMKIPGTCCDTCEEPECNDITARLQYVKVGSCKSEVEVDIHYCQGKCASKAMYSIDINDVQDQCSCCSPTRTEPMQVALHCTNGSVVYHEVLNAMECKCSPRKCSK
T2 sequence (P07359 17-652): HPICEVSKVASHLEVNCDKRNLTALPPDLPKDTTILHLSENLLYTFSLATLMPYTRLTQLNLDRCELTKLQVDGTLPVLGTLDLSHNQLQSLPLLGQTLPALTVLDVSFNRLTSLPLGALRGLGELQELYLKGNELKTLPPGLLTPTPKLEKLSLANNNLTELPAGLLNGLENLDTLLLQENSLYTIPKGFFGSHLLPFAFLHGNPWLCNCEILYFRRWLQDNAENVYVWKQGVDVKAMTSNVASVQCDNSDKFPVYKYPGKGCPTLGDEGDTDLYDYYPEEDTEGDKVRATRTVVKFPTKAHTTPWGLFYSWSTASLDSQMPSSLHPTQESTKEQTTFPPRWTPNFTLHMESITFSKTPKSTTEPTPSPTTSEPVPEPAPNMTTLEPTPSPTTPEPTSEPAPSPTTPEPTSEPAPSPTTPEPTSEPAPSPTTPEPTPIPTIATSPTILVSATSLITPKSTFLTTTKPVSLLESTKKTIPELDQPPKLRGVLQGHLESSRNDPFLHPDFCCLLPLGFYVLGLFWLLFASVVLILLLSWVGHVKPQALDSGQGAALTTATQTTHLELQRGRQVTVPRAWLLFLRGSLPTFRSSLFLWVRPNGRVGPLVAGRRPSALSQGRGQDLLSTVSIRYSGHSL
Experimental: The binding of vWf (vonWillebrand Factor) to glycoprotein Ib is measured in one of two experimental systems, in the presence of either ristocetin or botrocetin as modulators of binding. The ristocetin modulated binding is described herein.
Formalin-fixed platelets, prepared according to the method of MacFarlane, D. et al., Thromb. Diath. Haemorrh. 34, 306-308 (1975), were preincubated at room temperature for 15 minutes with specified dilutions of oligomers according to the present invention. Ristocetin, (Sigma, St. Louis, MO) diluted to a final concentration of 1.0 mg/ml, and ^125I-labelled multimeric vWF (isolated from human plasma cryoprecipitate according to the method of Fulcher, C.A. et al. Proc. Natl. Acad. Sci. USA, 79, 1648-1652 (1982), and labelled according to the method of Fraker, P.J. et al. Biochem. Biophys. Res. Commun., 80, 849-857 (1978)) were then added to the incubation mixture, and the amount of ^125I- vWF bound to the platelets was determined. ^125I-vWF binding to the platelets was referenced against 100% binding which was defined as the amount of ^125I- vWF bound in the absence of added oligomer compound. The method for measuring vWF binding is reported in detail in Ruggeri et al., J. Clin. Invest., 72, 1-12, (1983), herein incorporated by reference.

Structure (SMILES)	APTT ICDCT [1] [µg/mL]	% Inhibition of Heparanase Activity (5µg/ml) [2] [%]	Platelet Aggregation IC50 [3] [mg/L]	Ristocetin-Induced Inhibition of vWF Binding to Gp1b [4] [% at 100 µg/ml]	Ristocetin-Induced Inhibition of vWF Binding to Gp1b IC50 [4] [mg/L]	IC50 [4] [µM]
COc1cc(CCc2cc(OC)c(Cc3cc(OC)c(Cc4cc(OC)c(Cc5cc(OC)c(Cc6cc(OC)c(Cc7cc(OC)c(Cc8cc(OC)c(Cc9cc(O)ccc9CCC(=O)O)cc8CCC(=O)O)cc7CCC(=O)O)cc6CCC(=O)O)cc5CCC(=O)O)cc4CCC(=O)O)cc3CCC(=O)O)cc2CCC(=O)O)c(CCC(=O)O)cc1Cc1cc(OC)c(Cc2cc(OC)c(Cc3cc(OC)c(Cc4cc(OC)c(Cc5cc(OC)c(Cc6cc(OC)c(Cc7cc(O)ccc7CCC(=O)O)cc6CCC(=O)O)cc5CCC(=O)O)cc4CCC(=O)O)cc3CCC(=O)O)cc2CCC(=O)O)cc1CCC(=O)O [Ex 9, 1,2-bis-[4-[4-[4-[4-[4-[4-[4-[[2-(2-carboxyethyl)-5-hydroxy]benzyl]-[2-(2-carboxyethyl)-5-methoxy]benzyl]-[2-(2-carboxyethyl)-5-methoxy]benzyl]-[2-(2-carboxyethyl)-5-methoxy]benzyl]-[2-(2-carboxyethyl)-5-methoxy]benzyl]-[2-(2-carboxyethyl)-5-methoxy]benzyl]-[2-(2-carboxyethyl)-5-methoxy]benzyl]-[2-(2-carboxyethyl)-5-methoxy]phenyl]ethane]	105	52	319	–	–	–
O=C(O)CCc1cc(Cc2cc(O)c(Cc3cc(O)c(Cc4cc(O)ccc4CCC(=O)O)cc3CCC(=O)O)cc2CCC(=O)O)c(O)cc1CCc1cc(O)c(Cc2cc(O)c(Cc3cc(O)c(Cc4cc(O)ccc4CCC(=O)O)cc3CCC(=O)O)cc2CCC(=O)O)cc1CCC(=O)O [Ex 6, 1,2-bis-[4-[4-[4-[[2-(2-carboxyethyl)-5-hydroxy]benzyl]-[2-(2-carboxyethyl)-5-hydroxy]benzyl]-(2-(2-carboxyethyl)-5-hydroxy]benzyl]-[2-(2-carboxyethyl)-5-hydroxy]phenyl]ethane]	387	–	>1000	42	–	–
COc1ccc(CCC(=O)O)c(COc2cc(CCC(=O)O)c(COc3cc(CCC(=O)O)c(COc4cc(CCC(=O)O)c(COc5cc(CCC(=O)O)ccc5OC)cc4OC)cc3OC)cc2OC)c1 [Ex12, Step 11, 2-[4-[4-[4-[[5-(2-carboxyethyl)-2-methoxy]phenoxymethyl]-[5-(2-carboxyethyl)-2-methoxy]phenoxymethyl]-[5-(2-carboxyethyl)-2-methoxy]phenoxymethyl]-[5-(2-carboxyethyl)-2-methoxy]phenoxymethyl]-4-methoxyhydrocinnamic acid]	>250	–	–	–	>100	–
COc1cc(Cc2cc(CCC(=O)O)c(C)cc2O)c(CCC(=O)O)cc1Cc1cc(OC)c(Cc2cc(OC)c(Cc3cc(OC)c(Cc4cc(OC)c(Cc5cc(OC)c(Cc6cc(OC)c(Cc7cc(OC)c(Cc8cc(OC)c(Cc9cc(OC)c(Cc%10cc(OC)c(Cc%11cc(OC)c(Cc%12cc(OC)c(Cc%13cc(OC)c(Cc%14cc(O)ccc%14CCC(=O)O)cc%13CCC(=O)O)cc%12CCC(=O)O)cc%11CCC(=O)O)cc%10CCC(=O)O)cc9CCC(=O)O)cc8CCC(=O)O)cc7CCC(=O)O)cc6CCC(=O)O)cc5CCC(=O)O)cc4CCC(=O)O)cc3CCC(=O)O)cc2CCC(=O)O)cc1CCC(=O)O [Ex 8]	35	70	–	–	–	–
COc1cc(CCc2cc(OC)c(Cc3cc(OC)c(Cc4cc(OC)c(Cc5cc(O)ccc5CCC(=O)O)cc4CCC(=O)O)cc3CCC(=O)O)cc2CCC(=O)O)c(CCC(=O)O)cc1Cc1cc(OC)c(Cc2cc(OC)c(Cc3cc(O)ccc3CCC(=O)O)cc2CCC(=O)O)cc1CCC(=O)O [Ex 7, 1,2-bis-[4-[4-[4-[[2-(2-carboxyethyl)-5-hydroxy]benzyl]-[2-(2-carboxyethyl)-5-methoxy]benzyl]-[2-(2-carboxyethyl)-5-methoxy]benzyl]-[2-(2-carboxyethyl)-5-methoxy]phenyl]ethane]	500	–	–	17	–	–
O=C(O)CCc1ccc(O)c(Cc2cc(CCC(=O)O)cc(Cc3cc(CCC(=O)O)cc(Cc4cc(CCC(=O)O)ccc4O)c3O)c2O)c1 [Ex 1, Step 3, bis-[5-(2-carboxyethyl)-3-[5-(2-carboxyethyl)-2-hydroxybenzyl]2-hydroxyphenyl]methane]	>250	–	–	–	–	> 143
COC(=O)CCc1cc(OCc2cc(OC)c(OCc3cc(OC)c(OCc4cc(OC)c(OC(C)=O)cc4CCC(=O)OC)cc3CCC(=O)OC)cc2CCC(=O)OC)c(OC)cc1CO [Ex 10, Step 13]	>250	–	–	–	–	–
COc1cc(C)c(CCC(=O)O)cc1Cc1cc(OC)c(Cc2cc(OC)c(Cc3cc(OC)c(Cc4cc(OC)c(Cc5cc(OC)c(Cc6cc(OC)c(Cc7cc(O)ccc7CCC(=O)O)cc6CCC(=O)O)cc5CCC(=O)O)cc4CCC(=O)O)cc3CCC(=O)O)cc2CCC(=O)O)cc1CCC(=O)O [Ex 5, Step 2, 5-[4-[4-[4-[4-[4-[4-[[2-(2-carboxyethyl)-5-hydroxy]benzyl]-[2-(2-carboxyethyl)-5-methoxy]benzyl]-[2-(2-carboxyethyl)-5-methoxy]benzyl]-[2-(2-carboxyethyl)-5-methoxy]benzyl]-[2-(2-carboxyethyl)-5-methoxy]benzyl]-[2-(2-carboxyethyl)-5-methoxy]benzyl]-[2-(2-carboxyethyl)-5-methoxy]benzyl]-4-methoxy-2-methylhydrocinnamic acid]	37	20	>1000	–	–	–
